In ChEMBL document CHEMBL1126778, “Adenosine A1 antagonists. 3. Structure-activity relationships on amelioration against scopolamine- or N6-((R)-phenylisopropyl)adenosine-induced cognitive disturbance” (J Med Chem, 1993):

What was measured:
[1] = target: T1, Adenosine receptor A1 (Cavia porcellus, UniProt P47745); assay: Binding affinity against Adenosine A1 receptor from guinea pig forebrain membranes by N6-[3H]- cyclohexyladenosine displacement.
T1 sequence (P47745 whole entry): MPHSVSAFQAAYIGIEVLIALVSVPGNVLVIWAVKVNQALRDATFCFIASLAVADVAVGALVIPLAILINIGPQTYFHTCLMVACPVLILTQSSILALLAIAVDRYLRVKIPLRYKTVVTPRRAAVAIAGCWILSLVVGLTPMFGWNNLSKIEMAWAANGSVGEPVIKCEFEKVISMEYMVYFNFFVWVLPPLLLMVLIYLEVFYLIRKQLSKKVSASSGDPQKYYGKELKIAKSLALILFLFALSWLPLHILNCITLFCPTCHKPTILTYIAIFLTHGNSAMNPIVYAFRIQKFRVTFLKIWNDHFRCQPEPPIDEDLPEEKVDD

[2] = target: Adenosine receptor A1, Rattus norvegicus (UniProt P25099); assay: Binding affinity against Adenosine A1 receptor from rat forebrain membranes with N6-[3H]- cyclohexyladenosine
[3] = test system: Rattus norvegicus; assay: Acquisition time in Scopolamine induced avoidance test (performed in rat) for antagonistic activity after p.o. administration of 0.31 mg/kg; type: functional; conditions: route oral
[4] = test system: Rattus norvegicus; assay: Acquisition time in Scopolamine induced avoidance test (performed in rat) for antagonistic activity after peroral administration of 0.02 mg/kg; type: functional; conditions: route oral
[5] = test system: Rattus norvegicus; assay: Retention time in Scopolamine induced avoidance test (performed in rat) for antagonistic activity after peroral administration of 20 mg/kg; type: functional, organism-based; set-up: dose 20 mg/kg
[6] = test system: Rattus norvegicus; assay: Acquisition time in Scopolamine induced avoidance test (performed in rat) for antagonistic activity after p.o. administration of 0.08 mg/kg; type: functional; conditions: route oral
[7] = target: Adenosine A2 receptor (Rattus norvegicus, UniProt P29276+P30543); assay: Binding affinity against Adenosine A2 receptor from rat striatal membranes with N-[3H] ethyladenosin-5'-uronamide
[8] = test system: Rattus norvegicus; assay: Acquisition time in Scopolamine induced avoidance test (performed in rat) for antagonistic activity after p.o. administration of 5 mg/kg; type: functional; conditions: route oral
[9] = test system: Rattus norvegicus; assay: Retention time in Scopolamine induced avoidance test (performed in rat) for antagonistic activity after peroral administration of 1.25 mg/kg; type: functional, organism-based; set-up: dose 1.25 mg/kg
[10] = test system: Rattus norvegicus; assay: Retention time in Scopolamine induced avoidance test (performed in rat) for antagonistic activity after peroral administration of 0.02 mg/kg; type: functional, organism-based; set-up: dose 0.02 mg/kg
[11] = test system: Mus musculus; assay: Retention time in (R)-PIA) induced avoidance test (performed in mice) for antagonistic activity after p.o. administration of 1.25 mg/kg; type: functional, organism-based; set-up: dose 1.25 mg/kg
[12] = test system: Mus musculus; assay: Acquisition time in (R)-PIA) induced avoidance test (performed in mice) for antagonistic activity after peroral administration of 5 mg/kg; type: functional; conditions: route oral
[13] = test system: Rattus norvegicus; assay: Acquisition time in Scopolamine induced avoidance test (performed in rat) for antagonistic activity after peroral administration of 1.25 mg/kg; type: functional; conditions: route oral
[14] = test system: Mus musculus; assay: Acquisition time in (R)-PIA) induced avoidance test (performed in mice) for antagonistic activity after p.o. administration of 1.25 mg/kg; type: functional; conditions: route oral
[15] = test system: Rattus norvegicus; assay: Retention time in Scopolamine induced avoidance test (performed in rat) for antagonistic activity after p.o. administration of 0.31 mg/kg; type: functional, organism-based; set-up: dose 0.31 mg/kg
[16] = test system: Rattus norvegicus; assay: Acquisition time in Scopolamine induced avoidance test (performed in rat) for antagonistic activity after peroral administration of 20 mg/kg; type: functional; conditions: route oral
[17] = test system: Mus musculus; assay: Retention time in (R)-PIA) induced avoidance test (performed in mice) for antagonistic activity after peroral administration of 0.08 mg/kg; type: functional, organism-based; set-up: dose 0.08 mg/kg
[18] = test system: Mus musculus; assay: Acquisition time in (R)-PIA) induced avoidance test (performed in mice) for antagonistic activity after peroral administration of 0.08 mg/kg; type: functional; conditions: route oral
[19] = test system: Rattus norvegicus; assay: Retention time in Scopolamine induced avoidance test (performed in rat) for antagonistic activity after p.o. administration of 0.08 mg/kg; type: functional, organism-based; set-up: dose 0.08 mg/kg
[20] = test system: Mus musculus; assay: Retention time in (R)-PIA) induced avoidance test (performed in mice) for antagonistic activity after peroral administration of 5 mg/kg; type: functional, organism-based; set-up: dose 5 mg/kg
[21] = test system: Rattus norvegicus; assay: Retention time in Scopolamine induced avoidance test (performed in […]) for antagonistic activity after peroral administration of 5 mg/kg; type: functional, organism-based; set-up: dose 5 mg/kg
[22] = test system: Mus musculus; assay: Retention time in (R)-PIA) induced avoidance test (performed in mice) for antagonistic activity after peroral of 0.31 mg/kg; type: functional, organism-based; set-up: dose 0.31 mg/kg
[23] = test system: Mus musculus; assay: Acquisition time in (R)-PIA) induced avoidance test (performed in mice) for antagonistic activity after p.o. administration of 0.31 mg/kg; type: functional; conditions: route oral
[24] = test system: Mus musculus; assay: Retention time in (R)-PIA) induced avoidance test (performed in mice) for antagonistic activity after peroral administration of 0.31 mg/kg (n=15) (P<0.005); type: functional, organism-based; set-up: dose 0.31 mg/kg
[25] = test system: Mus musculus; assay: Acquisition time in (R)-PIA) induced avoidance test (performed in mice) for antagonistic activity after peroral administration of 0.31 mg/kg (n=15); type: functional; conditions: route oral
[26] = test system: Mus musculus; assay: Retention time in (R)-PIA) induced avoidance test (performed in mice) for antagonistic activity after peroral administration of 1.25 mg/kg (n=15) (P<0.01); type: functional, organism-based; set-up: dose 1.25 mg/kg
[27] = test system: Mus musculus; assay: Acquisition time in (R)-PIA) induced avoidance test (performed in mice) for antagonistic activity after peroral administration of 0.08 mg/kg (n=15); type: functional; conditions: route oral
[28] = test system: Rattus norvegicus; assay: Retention time in Scopolamine induced avoidance test (performed in rat) for antagonistic activity after peroral administration of 5 mg/kg; type: functional, organism-based; set-up: dose 5 mg/kg
[29] = test system: Mus musculus; assay: Tested for locomotor activity after oral administration of 40 mg/kg for 120 min; type: functional
[30] = test system: Mus musculus; assay: Tested for locomotor activity after oral administration of 10 mg/kg for 120 min; type: functional
[31] = test system: Rattus norvegicus; assay: Acquisition time in Scopolamine induced avoidance test (performed in rat) for antagonistic activity after peroral administration of 0.08 mg/kg (n=13); type: functional; conditions: route oral
[32] = test system: Mus musculus; assay: Tested for locomotor activity after oral administration of 6.25 mg/kg for 120 min; type: functional
[33] = test system: Rattus norvegicus; assay: Acquisition time in Scopolamine induced avoidance test (performed in rat) for antagonistic activity after peroral administration of 0.31 mg/kg (n=13); type: functional; conditions: route oral
[34] = test system: Rattus norvegicus; assay: Acquisition time in Scopolamine induced avoidance test (performed in rat) for antagonistic activity after peroral administration of 0.02 mg/kg (n=13); type: functional; conditions: route oral
[35] = test system: Mus musculus; assay: Acquisition time in (R)-PIA) induced avoidance test (performed in mice) for antagonistic activity after peroral administration of 1.25 mg/kg (n=15); type: functional; conditions: route oral
[36] = test system: Mus musculus; assay: Retention time in (R)-PIA) induced avoidance test (performed in mice) for antagonistic activity after peroral administration of 0.08 mg/kg (n=15) (P<0.01); type: functional, organism-based; set-up: dose 0.08 mg/kg
[37] = test system: Rattus norvegicus; assay: Retention time in Scopolamine induced avoidance test (performed in rat) for antagonistic activity after peroral administration of 0.08 mg/kg (n=13) (P<0.01); type: functional, organism-based; set-up: dose 0.08 mg/kg
[38] = test system: Rattus norvegicus; assay: Retention time in Scopolamine induced avoidance test (performed in rat) for antagonistic activity after peroral administration of 0.02 mg/kg (n=13); type: functional, organism-based; set-up: dose 0.02 mg/kg
[39] = test system: Rattus norvegicus; assay: Acquisition time in Scopolamine induced avoidance test (performed in rat) for antagonistic activity after peroral administration of 5 mg/kg; type: functional; conditions: route oral
[40] = test system: Rattus norvegicus; assay: Retention time in Scopolamine induced avoidance test (performed in rat) for antagonistic activity after peroral administration of 0.31 mg/kg (n=13) (P<0.005); type: functional, organism-based; set-up: dose 0.31 mg/kg

Chain of Adenosine receptor A1, Rattus norvegicus (P25099 whole entry, looked up): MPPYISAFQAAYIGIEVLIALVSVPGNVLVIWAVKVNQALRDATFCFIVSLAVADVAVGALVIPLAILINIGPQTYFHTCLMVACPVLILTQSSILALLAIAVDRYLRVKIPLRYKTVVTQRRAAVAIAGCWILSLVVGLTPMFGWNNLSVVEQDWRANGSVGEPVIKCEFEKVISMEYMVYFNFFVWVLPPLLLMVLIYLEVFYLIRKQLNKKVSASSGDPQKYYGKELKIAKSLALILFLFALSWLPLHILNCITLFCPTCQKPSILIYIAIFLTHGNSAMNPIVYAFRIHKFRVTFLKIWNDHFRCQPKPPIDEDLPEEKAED

Q: Which Ki [1] does the source give for CCCn1c(=O)c2[nH]c(C3CCCC3)nc2n(CCc2ccc(N)cc2)c1=O here?
A: 5.6 nM

Q: And the Ki [2]?
A: 0.23 nM

Q: Which results are given for CCCn1c(=O)c2[nH]c(C3CCCC3)nc2n(CCC)c1=S?
A: Acquisition time [3]: 8.9 s; Acquisition time [4]: 8.9 s; Ki [1]: 6.6 nM; Retention time [5]: 52.4 s; Acquisition time [6]: 9.4 s; Ki [7]: > 10000 nM; Acquisition time [8]: 8.5 s; Retention time [9]: 56.4 s; Retention time [10]: 19 s; Retention time [11]: 52.7 s; Acquisition time [12]: 26.9 s; Acquisition time [13]: 9.9 s; Acquisition time [14]: 12.3 s; Retention time [15]: 25.8 s; Acquisition time [16]: 6.7 s; Retention time [17]: 48.1 s; Acquisition time [18]: 24.7 s; Retention time [19]: 75.3 s; Retention time [20]: 104 s; Retention time [21]: 21.6 s; Retention time [22]: 121 s; Acquisition time [23]: 32.7 s

Q: What does the source list for CCCn1c(=O)c2[nH]c(C3CCCC3)nc2n(CCC)c1=O [1,3-DIPROPYL-8-CYCLOPENTYLXANTHINE [DPCPX]]?
A: Retention time [24]: 456 s; Acquisition time [25]: 19.1 s; Retention time [26]: 272 s; Acquisition time [27]: 19.4 s; Retention time [28]: 68.7 s; Locomotor activity [29]: 5257 Counts; Locomotor activity [30]: 4679 Counts; Acquisition time [31]: 21.5 s; Locomotor activity [32]: 3826 Counts; Acquisition time [33]: 24.7 s; Acquisition time [12]: 18.4 s; Acquisition time [34]: 19.8 s; Acquisition time [13]: 12.4 s; Acquisition time [35]: 20.5 s; Retention time [36]: 190 s; Retention time [37]: 105 s; Retention time [20]: 433 s; Retention time [38]: 32 s; Acquisition time [39]: 14.6 s; Retention time [40]: 273 s
